Where a chain is given by its changes, count along the chain named. Numbers in names are those of the source.
Tests used:
[1] = molecular target: Botryotinia fuckeliana glucose dehydrogenase (Bfu-GDH, SEQ ID NO:2) variant G53A (Botrytis cinerea, UniProt A0A384K3P1, G69A); settings: glucose 1-40 mM; pH 6.5; partially purified enzyme
Experimental: (§1) Site-specific mutagenesis was carried out by the QuikChange™ method. In the QuikChange™ method, the pET30c-Bfu-GDH created in Example 1 was used as the template, and amplified by PCR with mutagenesis primers. Next, DpnI was added to the reaction mixture and incubated at 37° C. for 60 minutes to digest the template DNA, and E. coli DH5a was transformed. After culturing overnight in an LB agar culture (50 μg/mL kanamycin), the plasmid was extracted from randomly selected clones, and the sequence was analyzed to confirm that the target mutation was introduced. The resulting PCR products were NdeI and HindIII digested (37° C., 2 hours), ligated with the same restriction enzyme-digested pET30c, and E. coli BL21(DE3) was transformed. After culturing overnight In an LB agar medium (50 μg/mL kanamycin), the plasmid was extracted from randomly selected clones, and the sequence was analyzed to confirm the mutation.
(§2) Transformants BL21(DE3) for expressing each of the modified enzymes were pre-cultured.

[2] = molecular target: Botryotinia fuckeliana glucose dehydrogenase (Bfu-GDH, SEQ ID NO:2) variant N176E (Botrytis cinerea, UniProt A0A384K3P1, N192E); settings: glucose 1-40 mM; pH 6.5; partially purified enzyme
Experimental: as §1, §2

[3] = molecular target: Botryotinia fuckeliana glucose dehydrogenase (Bfu-GDH, SEQ ID NO:2) variant N176K (Botrytis cinerea, UniProt A0A384K3P1, N192K); settings: glucose 1-40 mM; pH 6.5; partially purified enzyme
Experimental: as §1, §2

[4] = molecular target: Botryotinia fuckeliana glucose dehydrogenase (Bfu-GDH, SEQ ID NO:2) variant N176R (Botrytis cinerea, UniProt A0A384K3P1, N192R); settings: glucose 1-40 mM; pH 6.5; partially purified enzyme
Experimental: as §1, §2

[5] = molecular target: Botryotinia fuckeliana glucose dehydrogenase (Bfu-GDH, SEQ ID NO:2) variant S552C (Botrytis cinerea, UniProt A0A384K3P1, S568C); settings: glucose 1-40 mM; pH 6.5; partially purified enzyme
Experimental: as §1, §2

[6] = molecular target: Botryotinia fuckeliana glucose dehydrogenase (Bfu-GDH, SEQ ID NO:2) variant G53A/S514G (Botrytis cinerea, UniProt A0A384K3P1, G69A/S530G); settings: glucose 1-40 mM; pH 6.5; partially purified enzyme
Experimental: as §1, §2

[7] = molecular target: Botryotinia fuckeliana glucose dehydrogenase (Bfu-GDH, SEQ ID NO:2) variant S514G (Botrytis cinerea, UniProt A0A384K3P1, S530G); settings: glucose 1-40 mM; pH 6.5; partially purified enzyme
Experimental: as §1, §2

[8] = molecular target: Botryotinia fuckeliana glucose dehydrogenase (Bfu-GDH, SEQ ID NO:2) variant N176S (Botrytis cinerea, UniProt A0A384K3P1, N192S); settings: glucose 1-40 mM; pH 6.5; partially purified enzyme
Experimental: as §1, §2

[9] = molecular target: Botryotinia fuckeliana glucose dehydrogenase (Bfu-GDH, FAD-GDH), wild type, SEQ ID NO:2 (Botrytis cinerea, UniProt A0A384K3P1); experiment: Michaelis-Menten saturation kinetics with glucose (DCIP/PMS dehydrogenase assay); type: biochemical
Excerpt: as §2

[10] = substrate: OC[C@H]1OC(O)[C@H](O)[C@@H](O)[C@@H]1O; experiment: purified protein, by the assay type; type: biochemical, Aspergillus oryzae T1; settings: other: glucose, DCIP/PMS, pH 6.5, enzyme expressed 20° C./28 h
Excerpt: According to a prediction from the SignalP 3.0 Server, the region from the N-terminus to the Lys residue at the position 23 was predicted to be a signal peptide. A nucleotide sequence which encodes the amino acid sequence having the initiation methionine and the downstream sequence from the Asn residue at the position 24 was designed and totally synthesized. The amino acid sequence of the protein (referred to below as “Ao-GDH”) encoded by the gene thus obtained is shown in SEQ ID NO:4. E. coli BL21(DE3) (F—, ompT, hsdSB(rB- mB-), gal(λcI 857, ind1, Sam7, nin5, LacUV5-T7gene1), dcm(DE3): from Novagen) was used as the host for recombinant production. The gene expression vector used was pET30c (kan, LacI; from Novagen), and the chaperone co-expression vector used was pGro7 (GroEL, GroES; from TaKaRa).
(§3) (10-fold dilution at a final concentration).

[11] = substrate: OC[C@H]1OC(O)[C@H](O)[C@@H](O)[C@@H]1O; experiment: purified protein, by the assay type; type: biochemical, Aspergillus oryzae T1; settings: other: glucose, DCIP/PMS, pH 6.5, enzyme expressed 20° C./28 h; remark: listed apart in the source
Excerpt: as §3

`OC[C@H]1OC(O)[C@H](O)[C@@H](O)[C@@H]1O` (some centres unmarked) [glucose] was tested, and the “Vmax (apparent maximum activity)” value [1] was 8.1 U/mg protein, the “Vmax (apparent maximum activity)” value [2] was 10.4 U/mg protein and the “Vmax (apparent maximum activity)” value [3] was 25.1 U/mg protein. For the same molecule, the “Vmax (apparent maximum activity)” value [4] was 24.9 U/mg protein, the “Vmax (apparent maximum activity)” value [5] was 7.8 U/mg protein and the “Vmax (apparent maximum activity)” value [6] was 8.9 U/mg protein. For the same molecule, the “Vmax (apparent maximum activity)” value [7] was 36.6 U/mg protein, the “Vmax (apparent maximum activity)” value [8] was 11.5 U/mg protein and the Vmax ([9]; Table 3 (unit not given), glucose) was 8.7. The “Vmax (apparent maximum activity)” value ([9]; glucose 1-40 mM, pH 6.5, partially purified enzyme) was 8.7 U/mg protein.

B1: Aspergillus oryzae T1 glucose dehydrogenase (Ao-GDH, FAD-GDH), wild type, SEQ ID NO:4 (Aspergillus oryzae) (protein)
chain: MNTTTYDYIVVGGGTSGLVVANRLSENPDVSVLLLEAGASVFNNPDVTNANGYGLAFGSAIDWQYQSINQSYAGGKQQVLRAGKALGGTSTINGMAYTRAEDVQIDVWQKLGNEGWTWKDLLPYYLKSENLTAPTSSQVAAGAAYNPAVNGKEGPLKVGWSGSLASGNLSVALNRTFQAAGVPWVEDVNGGKMRGFNIYPSTLDVDLNVREDAARAYYFPYDDRKNLHLLENTTANRLFWKNGSAEEAIADGVEITSADGKVTRVHAKKEVIISAGALRSPLILELSGVGNPTILKKNNITPRVDLPTVGENLQDQFNNGMAGEGYGVLAGASTVTYPSISDVFGNETDSIVASLRSQLSDYAAATVKVSNGHMKQEDLERLYQLQFDLIVKDKVPIAEILFHPGGGNAVSSEFWGLLPFARGNIHISSNDPTAPAAINPNYFMFEWDGKSQAGIAKYIRKILRSAPLNKLIAKETKPGLSEIPATAADEKWVEWLKANYRSNFHPVGTAAMMPRSIGGVVDNRLRVYGTSNVRVVDASVLPFQVCGHLVSTLYAVAERASDLIKEDAKSA
In the case of B1, the Km [10] is reported as 44.7 mM and the Vmax [10] is reported as 120 µmol/min/mg.

B2: Aspergillus oryzae T1 glucose dehydrogenase (Ao-GDH, SEQ ID NO:4) variant G190C (Aspergillus oryzae; G212C) (protein)
chain: B1 chain with G190C
Molecule B2 has a Km [11] of 51.3 mM and a Vmax [11] of 119 µmol/min/mg.
